Publication PMC9380551 (Antimicrobial Agents and Chemotherapy, 2022)

System: SARS-CoV-2 Wuhan reference strain
Assay type: cell-based

CCC(CC)COC(=O)[C@H](C)N[P@](=O)(OC[C@H]1O[C@@](C#N)(c2ccc3c(N)ncnn23)[C@H](O)[C@@H]1O)Oc1ccccc1 [remdesivir]
comparative efficiency in inhibiting SARS-CoV-2 replication: the most efficient molecule

CC(C)c1nc(CN(C)C(=O)N[C@H](C(=O)N[C@@H](Cc2ccccc2)C[C@H](O)[C@H](Cc2ccccc2)NC(=O)OCc2cncs2)C(C)C)cs1 [ritonavir]
comparative efficiency in inhibiting SARS-CoV-2 replication: AB-00011778 was more efficient than the ritonavir molecule
